Reference: US4220755A, “Fortimicin B derivatives and process for production thereof” (Abbott Laboratories, priority 1976, dated 1980)
In brackets after ≈: the same amount, converted by molar mass.

Columns and labels:
[1] = tested on: Eschericia coli KY4271 ATCC26; assay: MIC, agar dilution method, pH 8.0; assay type: cell-based; settings: Escherichia coli, ATCC26; pH 8.0; E. coli KY4271; read-out: Minimum inhibition concentration (MIC), EC
Procedure: (§1) Measurement was carried out according to the agar dilution method, using a medium of pH 8.0, or the Japanese Antibiotic Medicament Standard, using a medium of pH 7.2 Units are in mcg/ml.
E.C.: Eschericia coli KY4271 ATCC26

[2] = tested on: Pseudomonas aeruginosa R5 KY8512; assay: MIC, agar dilution method, pH 7.2; assay type: cell-based; settings: R5KY8512, pH 7.2, P. aeruginosa R5 KY8512, 6**: neomycin, producing phosphotransferase type I and type II, read-out: Minimum inhibition concentration (MIC)
Procedure: as §1
6: neomycin, producing phosphotransferase type I and type II.

[3] = tested on: Staphylococcus a ureus 226; assay: MIC, agar dilution method, pH 7.2; assay type: cell-based, Staphylococcus aureus; settings: pH 7.2; Staphylococcus aureus 226; read-out: Minimum inhibition concentration (MIC)
Procedure: as §1

[4] = tested on: Eschericihia coli GN2411-5; assay: MIC, agar dilution method, pH 7.2; assay type: cell-based; settings: Escherichia coli; pH 7.2; E. coli GN2411-5; read-out: Minimum inhibition concentration (MIC)
Procedure: as §1

[5] = tested on: Pseudomonas aeruginosa BMH# 1; assay: MIC, agar dilution method, pH 7.2; assay type: cell-based; settings: pH 7.2; Pseudomonas aeruginosa BMH# 1; read-out: Minimum inhibition concentration (MIC)
Procedure: as §1

[6] = tested on: Pseudomonas aeruginosa UCLA 4184; assay: MIC, agar dilution method, pH 7.2; assay type: cell-based; settings: UCLA4184; pH 7.2; Pseudomonas aeruginosa UCLA 4184; read-out: Minimum inhibition concentration (MIC)
Procedure: as §1

[7] = tested on: Salmonella enteritidis G-14; assay: MIC, agar dilution method, pH 7.2; assay type: cell-based; settings: Salmonella enterica; pH 7.2; Salmonella enteritidis G-14; read-out: Minimum inhibition concentration (MIC)
Procedure: as §1

[8] = tested on: Klebsiella pneumoniae KY4274; assay: MIC, agar dilution method, pH 7.2; assay type: cell-based; settings: Klebsiella pneumoniae, KY4274, pH 7.2, read-out: Minimum inhibition concentration (MIC)
Procedure: as §1

Proteus vulgaris JJ = assay: MIC, agar dilution method, pH 7.2; assay type: cell-based; settings: Proteus vulgaris, pH 7.2, read-out: Minimum inhibition concentration (MIC)
Procedure: as §1

Shigella sonnei ATCC9290 = assay: MIC, agar dilution method, pH 7.2; assay type: cell-based; settings: read-out: Minimum inhibition concentration (MIC)
Procedure: as §1

[9] = tested on: Staphylococcus aureus Smith (A); assay: MIC, agar dilution method, pH 7.2; assay type: cell-based; settings: pH 7.2; Staphylococcus aureus Smith (A); read-out: Minimum inhibition concentration (MIC)
Procedure: as §1

[10] = tested on: Staphylococcus aureus 209-P; assay: MIC, agar dilution method, pH 7.2; assay type: cell-based; settings: pH 7.2; Staphylococcus aureus 209-P; read-out: Minimum inhibition concentration (MIC)
Procedure: as §1

Escherichia coli NIHTC-2 = assay: MIC, agar dilution method, pH 7.2; assay type: cell-based; settings: NIHTC2; pH 7.2; Escherichia coli NIHTC-2; read-out: Minimum inhibition concentration (MIC)
Procedure: as §1

[11] = tested on: Escherichia coli R20 KY8349; assay: MIC, agar dilution method, pH 7.2; assay type: cell-based; settings: R20KY8349, pH 7.2, E. coli R20 KY8349, 5**: neomycin, producing phosphotransferase type I, read-out: Minimum inhibition concentration (MIC)
Procedure: as §1
5: neomycin, producing phosphotransferase type I.

[12] = tested on: Escherichia coli R12 Z-338; assay: MIC, agar dilution method, pH 7.2; assay type: cell-based; settings: R12Z338, pH 7.2, read-out: Minimum inhibition concentration (MIC)
Procedure: as §1
(§2) **1: gentamicin, producing adenylsynthetase.

[13] = tested on: Escherichia coli 57R/W677; assay: MIC, agar dilution method, pH 7.2; assay type: cell-based; settings: 57R/W677, pH 7.2, read-out: Minimum inhibition concentration (MIC)
Procedure: as §1, §2

Escherichia coli 76-2 = assay: MIC, agar dilution method, pH 7.2; assay type: cell-based; settings: Escherichia coli, 762; pH 7.2; E. coli 76-2; 1**: gentamicin, producing adenylsynthetase; read-out: Minimum inhibition concentration (MIC)
Procedure: as §1, §2

[14] = tested on: Klebsiella pneumoniae 3020 Y-60; assay: MIC, agar dilution method, pH 7.2; assay type: cell-based; settings: 3020Y60; pH 7.2; Klebsiella pneumoniae 3020 Y-60; 1**: gentamicin, producing adenylsynthetase; read-out: Minimum inhibition concentration (MIC)
Procedure: as §1, §2

[15] = tested on: Salmonella typhosa KY4278 ATCC9992; assay: MIC, agar dilution method, pH 8.0; assay type: cell-based; settings: Salmonella enterica, pH 8, read-out: Minimum inhibition concentration (MIC), ST
Procedure: as §1
S.T.: Salmonella typhosa KY4278 ATCC9992

[16] = tested on: Proteus vulgaris KY4277 ATCC6897; assay: MIC, agar dilution method, pH 8.0; assay type: cell-based; settings: ATCC6897; pH 8.0; Proteus vulgaris KY4277; read-out: Minimum inhibition concentration (MIC), PV
Procedure: as §1

[17] = tested on: Shigella sonnei KY4281 ATCC9290; assay: MIC, agar dilution method, pH 8.0; assay type: cell-based; settings: Shigella sonnei, ATCC9290, pH 8, read-out: Minimum inhibition concentration (MIC), SS
Procedure: as §1

[18] = tested on: Escherichia coli R19 KY8348; assay: MIC, agar dilution method, pH 7.2; assay type: cell-based; settings: R19KY8348, pH 7.2, E. coli R19 KY8348, 4**: gentamicin, producing acetyltransferase type I, read-out: Minimum inhibition concentration (MIC)
Procedure: as §1
(§3) 4: gentamicin, producing acetyltransferase type I.

[19] = tested on: Pseudomonas aeruginosa R4 KY8511; assay: MIC, agar dilution method, pH 7.2; assay type: cell-based; settings: R4KY8511, pH 7.2, P. aeruginosa R4 KY8511, 4**: gentamicin, producing acetyltransferase type I, read-out: Minimum inhibition concentration (MIC)
Procedure: as §1, §3

Eschericihia coli 3100 = assay: MIC, agar dilution method, pH 7.2; assay type: cell-based, Escherichia coli; settings: Escherichia coli, 3100, pH 7.2, read-out: Minimum inhibition concentration (MIC)
Procedure: as §1

[20] = tested on: Escherichia coli R18 KY8321; assay: MIC, agar dilution method, pH 7.2; assay type: cell-based; settings: R18KY8321, E. coli R18 KY8321, 2**: gentamicin, producing adenylsynthetase and neomycin phosphotransferase type II, read-out: Minimum inhibition concentration (MIC)
Procedure: as §1
2: gentamicin, producing adenylsynthetase and neomycin phosphotransferase

Bacillus subtilis KY4273 = assay: MIC, agar dilution method, pH 8.0; assay type: cell-based; settings: pH 8.0; Bacillus subtilis KY4273; read-out: Minimum inhibition concentration (MIC), BS
Procedure: as §1
B.S.: Bacillus subtilis KY4273

Providencia sp 164 = assay: MIC, agar dilution method, pH 7.2; assay type: cell-based; settings: pH 7.2; Providencia sp 164; 7**: gentamicin, producing acetyltransferase type II; read-out: Minimum inhibition concentration (MIC)
Procedure: as §1
7: gentamicin, producing acetyltransferase type II.

[21] = tested on: Escherichia coli R17 Z343; assay: MIC, agar dilution method, pH 7.2; assay type: cell-based; settings: R17Z343, pH 7.2, E. coli R17 Z343, 3**: kanamycin, producing acetyltransferase, read-out: Minimum inhibition concentration (MIC)
Procedure: as §1
(§4) 3: kanamycin, producing acetyltransferase.

[22] = tested on: Pseudomonas aeruginosa R9 KY8516; assay: MIC, agar dilution method, pH 7.2; assay type: cell-based; settings: R9KY8516, pH 7.2, P. aeruginosa R9 KY8516, 3**: kanamycin, producing acetyltransferase, read-out: Minimum inhibition concentration (MIC)
Procedure: as §1, §4

Serratia marcescens 1065 = assay: MIC, agar dilution method, pH 7.2; assay type: cell-based; settings: Serratia marcescens, 1065, pH 7.2, read-out: Minimum inhibition concentration (MIC)
Procedure: as §1, §4

[23] = tested on: Staphylococcus aureus KY4279 ATCC6538P; assay: MIC, agar dilution method, pH 8.0; assay type: cell-based; settings: pH 8.0, Staphylococcus aureus KY4279, read-out: Minimum inhibition concentration (MIC), SA
Procedure: as §1
S.A.: Staphylococcus aureus KY4279 ATCC6538P

[24] = tested on: Klebsiella pneumoniae KY4275 ATCC10031; assay: MIC, agar dilution method, pH 8.0; assay type: cell-based; settings: ATCC10031; pH 8.0; Klebsiella pneumoniae KY4275; read-out: Minimum inhibition concentration (MIC), KP
Procedure: as §1
K.P.: Klebsiella pneumoniae KY4275 ATCC10031.

CO[C@H]1[C@@H](O)[C@H](N)[C@@H](O[C@H]2O[C@H]([C@H](C)N)CC[C@H]2N)[C@H](O)[C@@H]1N(C)CCN [Compound 15, 4-N-(2-aminoethyl)fortimicin B]
MIC [1]: 0.32 µg/mL (≈ 0.817 µM)
MIC [2]: 12.5 µg/mL (≈ 31.9 µM)
MIC [3]: 0.4 µg/mL (≈ 1.02 µM)
MIC [4]: 3.12 µg/mL (≈ 7.97 µM)
MIC [5]: 12.5 µg/mL (≈ 31.9 µM)
MIC [6]: 12.5 µg/mL (≈ 31.9 µM)
MIC [7]: 25 µg/mL (≈ 63.9 µM)
MIC [8]: 6.25 µg/mL (≈ 16 µM)
MIC (Proteus vulgaris JJ): 6.25 µg/mL (≈ 16 µM)
MIC (Shigella sonnei ATCC9290): 6.25 µg/mL (≈ 16 µM)
MIC [9]: 0.78 µg/mL (≈ 1.99 µM)
MIC [10]: 0.78 µg/mL (≈ 1.99 µM)
MIC (Escherichia coli NIHTC-2): 3.12 µg/mL (≈ 7.97 µM)
MIC [11]: 3.12 µg/mL (≈ 7.97 µM)
MIC [12]: 6.25 µg/mL (≈ 16 µM)
MIC [13]: 12.5 µg/mL (≈ 31.9 µM)
MIC (Escherichia coli 76-2): 3.12 µg/mL (≈ 7.97 µM)
MIC [14]: 50 µg/mL (≈ 128 µM)
MIC [15]: 0.32 µg/mL (≈ 0.817 µM)
MIC [16]: 0.64 µg/mL (≈ 1.63 µM)
MIC [17]: 1.25 µg/mL (≈ 3.19 µM)
MIC [18]: > 100 µg/mL
MIC [19]: > 100 µg/mL
MIC (Eschericihia coli 3100): 6.25 µg/mL (≈ 16 µM)
MIC [20]: 3.12 µg/mL (≈ 7.97 µM)
MIC (Bacillus subtilis KY4273): 0.16 µg/mL (≈ 0.409 µM)
MIC (Providencia sp 164): 12.5 µg/mL (≈ 31.9 µM)
MIC [21]: 0.78 µg/mL (≈ 1.99 µM)
MIC [22]: 25 µg/mL (≈ 63.9 µM)
MIC (Serratia marcescens 1065): 6.25 µg/mL (≈ 16 µM)
MIC [23]: 0.16 µg/mL (≈ 0.409 µM)
MIC [24]: 0.63 µg/mL (≈ 1.61 µM)
